Test results reported in patent US5599825A, “Water-soluble methine compound and pharmaceutical composition for treatment of cancer comprising the same” (Fuji Photo Film Co., Ltd., priority 1994, dated 1997).

Columns and labels:
[1] = Solubility test 1: 5 mg in 5 ml ion-exchanged water, macroscopic (1 mg/ml); assay type: physicochemical; conditions: room temperature; for Solubility 1 mg/mL: 5 minutes shaking; for dissolution in the above-described solubility tests: summary in words
Protocol: (§1) The solubility tests were conducted by the following methods of tests 1 and 2:
5 mg of a methine compound is fed into a test tube, to which 5 ml of ion-exchanged water is added, the resultant mixture is shaken at room temperature for 5 minutes, and the solubility thereof is macroscopically confirmed (1 mg/ml solution).

[2] = Solubility test 2: 5 mg in 0.5 ml ion-exchanged water, macroscopic (10 mg/ml); assay type: physicochemical; conditions: room temperature, 5 minutes shaking
Protocol: as §1
5 mg of a methine compound is fed into a test tube, to which 0.5 ml of ion-exchanged water is added, the resultant mixture is shaken at room temperature for 5 minutes, and the solubility thereof is macroscopically confirmed (10 mg/ml solution).

[3] = Solubility in 5% glucose solution for injection, macroscopic (10 mg/ml); assay type: physicochemical; conditions: room temperature, 5 minutes shaking
Protocol: The solubility of each of the compounds of the present invention synthesized in Example 1 in 5% glucose solution for injection was examined.
5 mg of a methine compound was fed into a test tube, to which 0.5 ml of 5% glucose solution for injection was added, the resultant mixture was shaken at room temperature for 5 minutes, and the solubility thereof was macroscopically confirmed (10 mg/ml solution).

[4] = tested on: human colonic epithelial carcinoma LS174T; assay: Activity against human colonic epithelial carcinoma LS174T in nude mouse (tumor inhibition); assay type: in vivo, human (transplanted in BALB/C nu/nu mice); conditions: i.v.
Protocol: Activity of the present pharmaceutical compositions against human colonic epithelial carcinoma LS174T was determined by use of nude mouse as follows:
As the human colonic epithelial carcinoma cell lines LS174T, there was used the established line by trypsinizing piece of LS174T obtained from the operating theatre of the original adenocarcinoma of colon in such that the piece becomes suitable for cultivation. When this cultured cells LS174T are hypodermically injected to a nude mouse, the cells can be easily grown in the body of the nude mouse as a moderately to sufficiently differentiated human colonic epithelial carcinoma. The cells LS174T produce CEA in high level and can proliferate in hamster cheek pouches or immunodeprived mice, so that it has been proven that the cells LS174T have neoplastic properties.
BALB/C nu/nu mice (male, five weeks age) available from Charles River Japan Inc. were placed in an atmosphere having no pathogen. Tumors formed by the hypodermic injection of human colonic epithelial carcinoma cell lines LS174T into the mice were cut off under the aseptic condition, and the surrounding skin and connective tissue of the tumor tissues as well as the necrotic tissue located in the center of the tumor tissues were removed. The tumor tissues were Cut in the form of 3-5 mm square, and the resulting one tissue was charged into a needle for transplantation to hypodermically transplant it into the mouse. The resulting mice were randomly divided into control group (six mice) and treating group (six mice). The intravenous administration of the pharmaceutical composition into the treating group started next day. The amount and schedule of the administration were determined based on the experience, mainly the knowledge from the pretoxic-test data of LD 50 and LD 10.5% glucose solution or physiologic saline for injection was injected to the control group in the same amount as that to be intravenously injected to the treating group.
The pharmaceutical composition was dissolved in 5% glucose solution or physiologic saline for injection in such that the amount of the pharmaceutical composition contained in the glucose solution or physiologic saline is 5 ml per one kg of weight of the mouse to be injected so as to prepare an injection liquid. When the proliferation of tumor in the control group reached exponential growth phase and the size of the tumor became detectable by touch with hand, i.e., generally three weeks after the transplantation, the experiment was stopped. Then the tumor of each mouse was cut off and the weight of the resulting tumor was measured by use of chemical balance. Regarding each group, tumor inhibition percentage between the treating group and control group was calculated.

[5] = tested on: LOX, a human melanoma cell line; assay: Nude mice bearing human melanoma LOX (survival); assay type: in vivo, human (in male athymic Swiss nu/nu mouse); conditions: i.p.
Protocol: Nude Mice Bearing Human Melanoma as a Model System
LOX, a human melanoma cell line, grown subcutaneously in nude mice was excised, trypsinized to yield a single cell suspension using a metal grid with a […]. Red blood cells were lysed by incubation with 0.17 molar ammonium chloride at 4° C. for 20 minutes. Five million viable trypan blue negative cells made up in 0.1 ml of Dulbecco modified Eagles' medium (DME) were injected into the peritoneal cavity of a male athymic Swiss nu/nu mouse. The control group and each treatment group consisted of 5 to 10 mice. Treatment was commenced the following day by intraperitoneal injection.
Ten control mice received 0.25 ml of 2% dextrose on those days the treated groups were injected with the compounds of this invention. The compounds of the General Formulas (I) to (II) used in this invention which were tested are listed in Table 6 below and the results obtained are shown in Table 6 of the accompanying drawings. T/C is the ratio, expressed as a percentage of the mean survival age of the treated group to the mean survival age of the untreated control group.

Row | Solubility 1 mg/mL [1] | Solubility 10 mg/mL [2] | Solubility 10 mg/mL [3] | SMILES | other results
1 | soluble | soluble | soluble | CCn1c(=Cc2sc3ccccc3[n+]2CCOCCOCCOCCOC)sc(=C2Sc3ccc4ccccc4c3N2C)c1=O [Compound 1-4] | Tumor Inhibition Ratio ([4]; 5 mg/kg days 1, 3, 7.5 mg/kg day 6, 10 mg/kg days 8, 10, 12.5 mg/kg days 13, 15, 17): 71.5%
2 | soluble | suspension |  | CCn1c(=Cc2sc3c4ccccc4ccc3[n+]2CCOCCOCCOC)sc(=C2Sc3ccc4ccccc4c3N2C)c1=O [Compound 1-5] | 
3 | soluble | soluble |  | CCn1c(=Cc2sc3ccccc3[n+]2CC)sc(=C2Sc3c(ccc4ccccc34)N2CCOCCOCCOC)c1=O [Compound 1-6, 3-ethyl-2-{[3-ethyl-5-(3-methoxyethoxyethoxyethylnaphtho[2,1-d]thiazolin-2-ylidene)]-4-oxothiazolidin-2-ylidenemethyl}benzothiazolium=chloride] | 
4 | soluble | suspension | soluble | CCn1c(=Cc2sc3ccccc3[n+]2CCOCCOCCOC)sc(=C2Sc3c(ccc4ccccc34)N2C)c1=O [Compound 1-8] | 
5 | soluble | soluble | soluble | CCn1c(=Cc2sc3ccccc3[n+]2CCOCCOCCOC)sc(=C2Oc3ccc4ccccc4c3N2C)c1=O [Compound 1-10] | 
6 | soluble | soluble | soluble | CCn1c(=Cc2sc3c4ccccc4ccc3[n+]2CCOCCOCCOC)sc(=C2SCCN2C)c1=O [Compound 1-14] | 
7 | soluble | soluble | soluble | CCN1C(=O)C(=C2Sc3ccc4ccccc4c3N2C)SC1=Nc1scc[n+]1CCOCCOCCOC [Compound 1-15] | Tumor Inhibition Ratio ([4]; 10 mg/kg days 1, 3, 6, 8, 10, 13, 15, 20): 60.0%
8 | soluble | suspension | soluble | CCn1c(=Cc2sc3c4ccccc4ccc3[n+]2CCOCCOCCOC)sc(=CC=C2Sc3ccc4ccccc4c3N2C)c1=O [Compound 1-16] | 
9 | suspension | suspension | suspension | CCn1c(=Cc2sc3ccccc3[n+]2CCOCCO)sc(=C2Sc3ccc4ccccc4c3N2C)c1=O [Compound S-3, reference compound] | dissolution in the above-described solubility tests [1]: not dissolved

More lines, now with the values behind:

Row | SMILES | Solubility 1 mg/mL [1] | Solubility 10 mg/mL [2] | Solubility 10 mg/mL [3] | other results
10 | CCn1c(=Cc2sc3ccccc3[n+]2CCOCCOCCOC)sc(=C2Sc3ccc4ccccc4c3N2C)c1=O [Compound 1-3] | soluble | soluble | soluble | Tumor Inhibition Ratio ([4]; 5 mg/kg day 1, 10 mg/kg days 3, 7, 13 mg/kg days 9, 13, 15, 17): 51.1%; T/C (mean survival age of treated group to untreated control group) ([5]; 7.5 mg/kg days 1, 2, 5, 7, 9, 13, 15, 20): 153%
11 | CC[n+]1c(C=c2sc(=C3Sc4c(ccc5ccccc45)N3C)c(=O)n2CCOCCOCCOC)sc2ccccc21 [Compound 1-7, 3-ethyl-2-{[3-methoxyethoxyethoxyethyl-5-(3-methylnaphtho[2,1-d]thiazolin-2-ylidene)]-4-oxothiazolidin-2-ylidenemethyl}benzothiazolium=chloride] | soluble | soluble | soluble | Tumor Inhibition Ratio ([4]; 5 mg/kg days 1, 17, 7.5 mg/kg day 3, 10 mg/kg days 6, 8, 10, 13): 83.0%; T/C (mean survival age of treated group to untreated control group) ([5]; 5 mg/kg days 1, 9, 15, 10 mg/kg days 2, 5, 7, 13): 129%
12 | CCn1c(=Cc2sc3ccccc3[n+]2CCC2OCCCO2)sc(=C2Sc3ccc4ccccc4c3N2C)c1=O [Compound 1-9, 3-(1,3-dioxane-2-ethyl)-2-{[3-ethyl-5-(3-methylnaphtho[1,2-d]thiazolin-2-ylidene)]-4-oxothiazolidin-2-ylidenemethyl}benzothiazolium=chloride] | soluble | suspension |  | Tumor Inhibition Ratio ([4]; 3 mg/kg days 1, 4, 7, 1 mg/kg days 9, 11, 13, 18): 65.6%; T/C (mean survival age of treated group to untreated control group) ([5]; 5 mg/kg days 1, 13, 15, 10 mg/kg days 2, 5, 7, 15 mg/kg day 9): 153%
13 | CCn1c(=Cc2sc3c4ccccc4ccc3[n+]2CCOCCOCCOC)sc(=C2Sc3ccccc3N2C)c1=O [Compound 1-11, 3-methoxyethoxyethoxyethyl-2-{[3-ethyl-5-(3-methylbenzothiazolin-2-ylidene)]-4-oxothiazolidin-2-ylidenemethyl}naphtho[2,1-d]thiazolium=chloride] | soluble | soluble | soluble | Tumor Inhibition Ratio ([4]; 8 mg/kg day 1, 10 mg/kg days 3, 6, 8, 10, 15, 17): 67.9%; T/C (mean survival age of treated group to untreated control group) ([5]; 5 mg/kg days 1, 15, 10 mg/kg days 2, 5, 7, 13, 15 mg/kg day 9): 129%
14 | CCn1c(=Cc2sc3ccccc3[n+]2CCOCCOCCOC)sc(=C2Sc3ccccc3N2C)c1=O [Compound 1-12] | soluble | soluble | soluble | T/C (mean survival age of treated group to untreated control group) ([5]; 5 mg/kg day 1, 10 mg/kg days 2, 5, 7, 9, 13, 15): 124%
15 | CCn1c(=Cc2sc3ccccc3[n+]2CCOCCOCCOC)sc(=C2Sc3ccc(OC)cc3N2C)c1=O [Compound 1-13] | soluble | soluble | soluble | Tumor Inhibition Ratio ([4]; 20 mg/kg days 1, 3, 7, 11, 16, 18, 25 mg/kg day 9): 45.2%; T/C (mean survival age of treated group to untreated control group) ([5]; 5 mg/kg day 1, 7.5 mg/kg days 2, 5, 10 mg/kg days 7, 9, 13, 15): 124%
16 | CCn1c(=Cc2sc3ccccc3[n+]2CC)sc(=C2Sc3ccc4ccccc4c3N2C)c1=O [Compound S-1, reference compound] | suspension | suspension | suspension | dissolution in the above-described solubility tests [1]: not dissolved
17 | CCn1c(=Cc2sc3ccccc3[n+]2CCOC)sc(=C2Sc3ccc4ccccc4c3N2C)c1=O [Compound S-2, reference compound] | suspension | suspension | suspension | dissolution in the above-described solubility tests [1]: not dissolved
